In the assay the test system is BDF1 mice, P388 leukemia ip, median survival T/C. Put plainly: NCI In Vivo Anticancer Drug Screen. Data for tumor model P388 Leukemia (intraperitoneal) in B6D2F1 (BDF1) mice. As to conditions: endpoint: median survival time, higher = longer survival. The gist of the method:
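Steps: implant the tumour, treat one group with compound and another with vehicle, record survival, then divide treated by control.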

The mark [1] stands for this setting: dose: 100.0 mg/kg/injection, schedule: Q04DX003 (ip), vehicle: saline with Tween-80.
Where [2] appears, read: dose: 200.0 mg/kg/injection, schedule: Q04DX003 (ip), vehicle: saline with Tween-80.
Setting [3] is: dose: 400.0 mg/kg/injection, schedule: Q04DX003 (ip), vehicle: saline with Tween-80.
Setting [4] is: dose: 50.0 mg/kg/injection, schedule: Q04DX003 (ip), vehicle: saline.
The mark [5] stands for this setting: dose: 100.0 mg/kg/injection, schedule: Q04DX003 (ip), vehicle: saline.
The mark [6] stands for this setting: dose: 100.0 mg/kg/injection, schedule: Q04DX003 (ip), vehicle: saline sonified.
The mark [7] stands for this setting: dose: 200.0 mg/kg/injection, schedule: Q04DX003 (ip), vehicle: saline sonified.
[8] abbreviates: dose: 400.0 mg/kg/injection, schedule: Q04DX003 (ip), vehicle: saline sonified.
The mark [9] stands for this setting: dose: 200.0 mg/kg/injection, schedule: Q04DX003 (ip), vehicle: Klucel (hydroxypropylcellulose) (HPC).
Where [10] appears, read: dose: 25.0 mg/kg/injection, schedule: Q04DX003 (ip), vehicle: saline.

“And” between values parts separate entries of the source, which are not always exact repeats. Equal entries are not always repeated. Toxic doses and inconclusive results are not listed.

On to `O=C1C=C(c2ccccc2)C(c2ccccc2)C(c2ccccc2)C1` (configuration not stated), for which the T/C under setting [1] is 100 % of control, the T/C under setting [2] is 91 % of control and the T/C under setting [3] is 86 % of control.
`Cc1ccc(S(=O)(=O)CC#CCOc2ccccc2)cc1`: the T/C under setting [4] was 100 % of control; the T/C under setting [5] is 100 % of control; the T/C (dose: 200.0 mg/kg/injection, schedule: Q04DX003 (ip), vehicle: saline) was 104 % of control.
Consider `CCN1C[C@]2(COC)[C@H](O)C[C@H](OC)[C@]34C1[C@H]([C@H](OC)[C@H]23)[C@]1(OC(C)=O)[C@H]2[C@@H](OC(=O)c3ccccc3)[C@](O)(C[C@H]24)[C@@H](OC)[C@@H]1O`, for which the T/C was 93 % of control (dose: 0.13 mg/kg/injection, schedule: Q01DX009 (ip), vehicle: Klucel (hydroxypropylcellulose) (HPC)) and 91 % of control (dose: 0.25 mg/kg/injection, schedule: Q01DX009 (ip), vehicle: Klucel (hydroxypropylcellulose) (HPC)).
With `O=c1cc[nH]c2cc(C(F)(F)F)ccc12`, the T/C reads like this: under setting [6], 100 % of control; under setting [7], 95 % of control.
As to `CC(=O)c1cccc(NC2C(N)C(NC(=O)N(C)C)(C(C)O)C(C)(O)C2(O)COC(=O)c2c(C)cccc2O)c1` (configuration not stated), the T/C is, setting by setting: (dose: 5.4 mg/kg/injection, schedule: Q04DX003 (ip), vehicle: alkali diluted with saline) 167 % of control; (dose: 6.5 mg/kg/injection, schedule: Q04DX003 (ip), vehicle: alkali diluted with saline) 163 % of control; (dose: 8.64 mg/kg/injection, schedule: Q04DX003 (ip), vehicle: alkali diluted with saline) 159 % of control; (dose: 9.0 mg/kg/injection, schedule: Q04DX003 (ip), vehicle: alkali diluted with saline) 170 % of control; (dose: 10.8 mg/kg/injection, schedule: Q04DX003 (ip), vehicle: alkali diluted with saline) 169 % of control.
In the case of `CC(=O)c1cc(C)[nH]c1C`, the T/C is, setting by setting: under setting [7], 115 % of control; under setting [8], 100 % of control.
Turning to `CCOC(CNC(=O)NC1CCCCC1)OCC`, the T/C under setting [1] was 90 % of control, the T/C under setting [2] was 90 % of control and the T/C under setting [3] is 90 % of control.
As for `Cc1c[n+]2c3ccccc3c3ccccc3c2s1`, the T/C (dose: 1.5 mg/kg/injection, schedule: Q01DX009 (ip), vehicle: Klucel (hydroxypropylcellulose) (HPC)) is 95 % of control; the T/C (dose: 2.5 mg/kg/injection, schedule: Q01DX009 (ip), vehicle: Klucel (hydroxypropylcellulose) (HPC)) was 100 % of control; the T/C (dose: 3.0 mg/kg/injection, schedule: Q01DX009 (ip), vehicle: Klucel (hydroxypropylcellulose) (HPC)) is 90 % of control; the T/C (dose: 5.0 mg/kg/injection, schedule: Q01DX009 (ip), vehicle: Klucel (hydroxypropylcellulose) (HPC)) was 122 % of control; the T/C (dose: 6.0 mg/kg/injection, schedule: Q01DX009 (ip), vehicle: Klucel (hydroxypropylcellulose) (HPC)) was 86 % of control; the T/C (dose: 10.0 mg/kg/injection, schedule: Q01DX009 (ip), vehicle: Klucel (hydroxypropylcellulose) (HPC)) was 118 % of control. Further, the T/C (dose: 10.0 mg/kg/injection, schedule: Q04DX003 (ip), vehicle: Klucel (hydroxypropylcellulose) (HPC)) is 118 % of control; the T/C (dose: 20.0 mg/kg/injection, schedule: Q04DX003 (ip), vehicle: Klucel (hydroxypropylcellulose) (HPC)) was 95 % of control; the T/C (dose: 80.0 mg/kg/injection, schedule: Q04DX003 (ip), vehicle: Klucel (hydroxypropylcellulose) (HPC)) is 90 % of control; the T/C under setting [9] was 90 % of control.
Turning to `COC1=CC=C2C3Cc4ccc(OC)c(O)c4C2(C1)CN3C` (configuration not stated), the T/C is, setting by setting: (dose: 3.12 mg/kg/injection, schedule: Q01DX009 (ip), vehicle: Klucel (hydroxypropylcellulose) (HPC)) 87 % of control; (dose: 6.25 mg/kg/injection, schedule: Q01DX009 (ip), vehicle: Klucel (hydroxypropylcellulose) (HPC)) 87 % of control; (dose: 25.0 mg/kg/injection, schedule: Q01DX009 (ip), vehicle: Klucel (hydroxypropylcellulose) (HPC)) 100 % of control.
As to `COc1cc(/C=C(/C)[N+](=O)[O-])cc(Br)c1OC`, the T/C under setting [1] is 117 % of control.
For `CC(=O)OCC1OC(n2cnc3c(=S)nc(N)[nH]c32)C(OC(C)=O)C1OC(C)=O` (configuration not stated), the T/C (dose: 3.5 mg/kg/injection, schedule: Q01DX009 (ip), vehicle: saline with Tween-80) is 113 % of control; the T/C (dose: 5.2 mg/kg/injection, schedule: Q01DX009 (ip), vehicle: saline with Tween-80) is 122 % of control; the T/C (dose: 12.0 mg/kg/injection, schedule: Q01DX009 (ip), vehicle: saline with Tween-80) was 90 % of control; the T/C (dose: 18.0 mg/kg/injection, schedule: Q01DX009 (ip), vehicle: saline with Tween-80) was 100 % of control; the T/C (dose: 26.0 mg/kg/injection, schedule: Q01DX009 (ip), vehicle: saline with Tween-80) is 90 % of control; the T/C (dose: 40.0 mg/kg/injection, schedule: Q01DX009 (ip), vehicle: saline with Tween-80) was 90 % of control. For the same molecule, the T/C (dose: 50.0 mg/kg/injection, schedule: Q01DX009 (ip), vehicle: saline with Tween-80) is 90 % of control; the T/C (dose: 132.0 mg/kg/injection, schedule: Q04DX003 (ip), vehicle: saline with Tween-80) is 100 % of control; the T/C under setting [2] is 166 % of control.
For `CN(C)Cc1c[nH]c2nccnc12`, the T/C was 95 % of control (dose: 3.12 mg/kg/injection, schedule: Q01DX009 (ip), vehicle: saline); 109 % of control (dose: 6.25 mg/kg/injection, schedule: Q01DX009 (ip), vehicle: saline); 101 % of control (dose: 12.5 mg/kg/injection, schedule: Q01DX009 (ip), vehicle: saline); 93 % of control (dose: 25.0 mg/kg/injection, schedule: Q01DX009 (ip), vehicle: saline); 99 % of control under setting [10]; 100 % of control (dose: 50.0 mg/kg/injection, schedule: Q01DX009 (ip), vehicle: saline). Further, the T/C is 100 % of control and 101 % of control under setting [4]; 100 % of control (dose: 100.0 mg/kg/injection, schedule: Q01DX009 (ip), vehicle: saline); 92 % of control and 100 % of control under setting [5].
For the molecule `CC(C)=CCCC(C)=C(C(=O)O)C(=O)O`, the T/C runs as follows: (dose: 100.0 mg/kg/injection, schedule: Q04DX003 (ip), vehicle: Klucel (hydroxypropylcellulose) (HPC)) 113 % of control; under setting [9], 111 % of control; (dose: 400.0 mg/kg/injection, schedule: Q04DX003 (ip), vehicle: Klucel (hydroxypropylcellulose) (HPC)) 110 % of control.
With `CCN(CC)P(=O)(N1CC1)N1CC1`, the T/C is 272 % of control (dose: 16.5 mg/kg/injection, schedule: Q04DX003 (ip), vehicle: saline) and 90 % of control under setting [10].
Consider `Cc1ccc(N2C(=O)CC(Sc3ccccc3N)C2=O)cc1Cl` (configuration not stated), for which the T/C by setting is: (dose: 100.0 mg/kg/injection, schedule: Q01DX009 (ip), vehicle: saline with Tween-80) 110 % of control; under setting [1], 95 % of control; (dose: 200.0 mg/kg/injection, schedule: Q01DX009 (ip), vehicle: saline with Tween-80) 90 % of control; under setting [2], 109 % of control; (dose: 400.0 mg/kg/injection, schedule: Q01DX009 (ip), vehicle: saline with Tween-80) 105 % of control; under setting [3], 109 % of control.
For the molecule `CC1CN1c1nc(N2CC2C)nc(N2CC2C)n1` (configuration not stated), the T/C runs as follows: (dose: 3.0 mg/kg/injection, schedule: Q01DX009 (ip), vehicle: saline) 104 % of control; (dose: 3.0 mg/kg/injection, schedule: Q04DX003 (ip), vehicle: saline) 109 % of control; (dose: 6.0 mg/kg/injection, schedule: Q01DX009 (ip), vehicle: saline) 112 % of control; (dose: 6.0 mg/kg/injection, schedule: Q04DX003 (ip), vehicle: saline) 109 % of control; (dose: 12.0 mg/kg/injection, schedule: Q04DX003 (ip), vehicle: saline) 114 % of control; (dose: 12.5 mg/kg/injection, schedule: Q04DX003 (ip), vehicle: saline) 120 % of control.
`CC(OC(=O)Nc1cccc(Cl)c1)C(=O)O` (configuration not stated): the T/C runs as follows: (dose: 100.0 mg/kg/injection, schedule: Q01DX009 (ip), vehicle: gum acacia) 107 % of control; (dose: 200.0 mg/kg/injection, schedule: Q01DX009 (ip), vehicle: gum acacia) 96 % of control; (dose: 400.0 mg/kg/injection, schedule: Q01DX009 (ip), vehicle: gum acacia) 100 % of control.
Take `Oc1ccc(C2N(c3ccccc3)CCN2c2ccccc2)cc1`: the T/C is, setting by setting: under setting [1], 110 % of control; under setting [2], 86 % of control.
As to `CC(=O)NC(O)C(Cl)(Cl)Cl` (configuration not stated), the T/C under setting [6] is 91 % of control, the T/C under setting [7] is 108 % of control and the T/C under setting [8] was 100 % of control.

The record behind these values is PubChem BioAssay AID328 (DTP/NCI, 2004).
